Reference: patent US8598365B2, “Herbicides” (Syngenta Limited, priority 2007, dated 2013)

Experiments:
Test in all cases: Example B post-emergence herbicidal activity
Type in all cases: in vivo
[1] = tested on: Alopecurus myosuroides (ALOMY); conditions: 312 h, evaluated after 13 days, read-out: Post-emergence activity ALOMY (100=total damage to plant; 0=no damage to plant); for pest or weed control at 250 g/ha: rate 250 g/ha
Description: (§1) Seeds of a variety of test species were sown in standard soil in pots. After cultivation for one day (pre-emergence) or after 8 days cultivation (post-emergence) under controlled conditions in a glasshouse (at 24/16° C., day/night; 14 hours light; 65% humidity), the plants were sprayed with an aqueous spray solution derived from the formulation of the technical active ingredient in acetone/water (50:50) solution containing 0.5% Tween 20 (polyoxyethelyene sorbitan monolaurate, CAS RN 9005-64-5).
(§2) The test plants were then grown in a glasshouse under controlled conditions in a glasshouse (at 24/16° C., day/night; 14 hours light; 65% humidity) and watered twice daily. After 13 days for pre and post-emergence, the test was evaluated (100=total damage to plant; 0=no damage to plant).
(§3) Alopecurus myosuroides (ALOMY), Avena fatua (AVEFA), Setaria faberi (SETFA), Echinochloa crus-galli (ECHCG), Solanum nigrum (SOLNI) and Amaranthus retoflexus (AMARE)

Setaria faberi (SETFA) = conditions: 312 h, evaluated after 13 days, read-out: Post-emergence activity SETFA (100=total damage to plant; 0=no damage to plant); for pest or weed control at 250 g/ha: rate 250 g/ha
Description: as §1, §2, §3

[2] = tested on: Echinochloa crus-galli (ECHCG); conditions: 312 h, evaluated after 13 days, read-out: Post-emergence activity ECHCG (100=total damage to plant; 0=no damage to plant); for pest or weed control at 250 g/ha: rate 250 g/ha
Description: as §1, §2, §3

[3] = tested on: Amaranthus retoflexus (AMARE); conditions: Amaranthus retroflexus, 312 h, evaluated after 13 days, read-out: Post-emergence activity AMARE (100=total damage to plant; 0=no damage to plant); for pest or weed control at 250 g/ha: rate 250 g/ha
Description: as §1, §2, §3

Avena fatua (AVEFA) = conditions: 312 h, evaluated after 13 days, read-out: Post-emergence activity AVEFA (100=total damage to plant; 0=no damage to plant); for pest or weed control at 250 g/ha: rate 250 g/ha
Description: as §1, §2, §3

SMILES | pest or weed control at 250 g/ha [1] [%] | pest or weed control at 250 g/ha (Setaria faberi (SETFA)) [%] | pest or weed control at 250 g/ha [2] [%] | pest or weed control at 250 g/ha [3] [%] | pest or weed control at 250 g/ha (Avena fatua (AVEFA)) [%] | pest or weed control at 1000 g/ha ([1]; rate 1000 g/ha) [%] | pest or weed control at 1000 g/ha (Setaria faberi (SETFA); rate 1000 g/ha) [%] | pest or weed control at 1000 g/ha ([2]; rate 1000 g/ha) [%] | pest or weed control at 1000 g/ha ([3]; rate 1000 g/ha) [%] | pest or weed control at 1000 g/ha (Avena fatua (AVEFA); rate 1000 g/ha) [%]
O=C1C(c2csc(-c3ccc(Cl)cc3)n2)C(=O)[C@H]2CC[C@@H]1C2 (some centres unmarked) [Compound T43, 3-[2-(4-chloro-phenyl)thiazol-4-yl]bicyclo[3.2.1]octane-2,4-dione] | 20 | 60 | 20 | 0 | 0 |  |  |  |  | 
Cc1oc(-c2ccc(Cl)cc2)nc1C1C(=O)[C@@H]2CC[C@@H](C2)C1=O (some centres unmarked) [Compound T90] | 0 | 40 | 30 | 0 | 0 |  |  |  |  | 
Cc1sc(-c2ccc(C(=O)O)cc2)cc1C1C(=O)C2CCC(C2)C1=O (centres unmarked) [Compound T24, 4-[4-(2,4-dioxobicyclo[3.2.1]oct-3-yl)-5-methylthiophen-2-yl]benzoic acid] | 0 | 30 | 0 | 0 | 0 |  |  |  |  | 
Cc1sc(-c2ccc(OC(C)C)c(Cl)c2)nc1C1C(=O)[C@@H]2CC[C@@H](C2)C1=O (some centres unmarked) [Compound T79] | 0 | 10 | 0 | 0 | 0 |  |  |  |  | 
Cc1sc(-c2ccc(Cl)cc2C(F)(F)F)nc1C1C(=O)[C@@H]2CC[C@@H](C2)C1=O (some centres unmarked) [Compound T6] | 0 | 50 | 40 | 0 | 0 |  |  |  |  | 
CCc1sc(-c2ccccc2OC)nc1C1C(=O)[C@@H]2CC[C@@H](C2)C1=O (some centres unmarked) [Compound T95] | 80 | 80 | 70 | 0 | 30 |  |  |  |  | 
CCc1sc(-c2ccc(OC(C)C)c(Cl)c2)nc1C1C(=O)[C@@H]2CC[C@@H](C2)C1=O (some centres unmarked) [Compound T114] | 10 | 90 | 60 | 0 | 0 |  |  |  |  | 
Cc1nc(-c2ccc(Cl)cc2)sc1C1C(=O)[C@@H]2CC[C@@H](C2)C1=O (some centres unmarked) [Compound T31] | 0 | 80 | 60 | 0 | 0 |  |  |  |  | 
Cc1sc(-c2ccsc2)nc1C1C(=O)[C@@H]2CC[C@@H](C2)C1=O (some centres unmarked) [Compound T60] | 0 | 60 | 50 | 0 | 0 |  |  |  |  | 
Cc1nc(-c2ccc(Cl)cc2F)sc1C1C(=O)[C@@H]2CC[C@@H](C2)C1=O (some centres unmarked) [Compound T47] | 30 | 90 | 80 | 0 | 0 |  |  |  |  | 
CCOc1ccc(-c2nc(C3C(=O)[C@@H]4CC[C@@H](C4)C3=O)c(CC)s2)cc1F (some centres unmarked) [Compound T112] | 70 | 100 | 100 | 0 | 80 |  |  |  |  | 
CCc1sc(-c2cccc(Cl)c2Cl)nc1C1C(=O)[C@@H]2CC[C@@H](C2)C1=O (some centres unmarked) [Compound T98] | 20 | 70 | 70 | 0 | 0 |  |  |  |  | 
COC(=O)c1ccc(-c2cc(C3C(=O)[C@@H]4CC[C@@H](C4)C3=O)c(C)s2)cc1 (some centres unmarked) [Compound T25, 4-[4-(2,4-dioxobicyclo[3.2.1]oct-3-yl)-5-methylthiophen-2-yl]benzoic acid methyl ester] |  |  |  |  |  | 20 | 30 | 10 | 0 | 0
